Experimental data as given in patent publication US20060069132A1, “Azolecarboxamide herbicides” (priority 2004, published 2006).

Columns and labels:
bermudagrass = test: Test C pre-/postemergence herbicide test; format: in vivo, Cynodon dactylon
Outline: (§1)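 Visual injury scores run from 0 (no effect) to 100 (complete control), assessed relative to untreated controls 12 to 14 days after treatment in the greenhouse. Chemicals were formulated in a non-phytotoxic solvent mixture with surfactant and applied to soil after planting or to emerged plants at the 1- to 4-leaf stage.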

soybean = test: Test C pre-/postemergence herbicide test; format: in vivo, Glycine max
Outline: as §1

large crabgrass = test: Test C pre-/postemergence herbicide test; format: in vivo, Digitaria sanguinalis
Outline: as §1

[1] = system: common (oilseed) sunflower; test: Test C pre-/postemergence herbicide test; format: in vivo, Helianthus annuus
Outline: as §1

ducksalad = test: Test C flooded paddy test; format: in vivo, Heteranthera limosa; conditions: Heteranthera limosa
rice = test: Test C flooded paddy test; format: in vivo, Oryza sativa; conditions: Oryza sativa
Outline: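 Injury scored visually against controls on a 0 (no effect) to 100 (complete control) scale, 12 to 14 days after treatment in greenhouse. Flooded paddy plants treated at 2-leaf stage; postemergence plants at 1- to 4-leaf stage, 2 to 18 cm tall.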

barnyardgrass = test: Test C flooded paddy test; format: in vivo, Echinochloa crus-galli; conditions: Echinochloa crus-galli
Outline: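 Postemergence sprays applied to plants 2 to 18 cm tall (1- to 4-leaf stage); paddy species grown to 2-leaf stage under flooding. After 12 to 14 days in greenhouse, visual rating versus untreated controls on 0–100 scale (0 no effect, 100 complete control).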

kochia = test: Test C pre-/postemergence herbicide test; format: in vivo, Kochia scoparia
Outline: as §1

lambsquarters = test: Test C pre-/postemergence herbicide test; format: in vivo, Chenopodium album
Outline: as §1

giant foxtail = test: Test C pre-/postemergence herbicide test; format: in vivo, Setaria faberi
Outline: as §1

## CCn1nc2c(c1C(=O)Nc1cc(C(=O)N(C)C)ccc1F)CCC2(C)C [Compound 352, N-[5-[(dimethylamino)carbonyl]-2-fluorophenyl]-2-ethyl-2,4,5,6-tetrahydro-6,6-dimethyl-3-cyclopentapyrazolecarboxamide]
bermudagrass; 125 g ai/ha, preemergence
  Plant response rating (0 = no effect, 100 = complete control), Bermudagrass: 100
bermudagrass; Cynodon dactylon, pre-emergence, 312 h, 62 g ai/ha, preemergence, scale 0 to 100, 0 no effect, 100 complete control, read-out: Plant response rating, Bermudagrass
  pest or weed control at 62 g/ha: 95%
bermudagrass; Cynodon dactylon, pre-emergence, 312 h, 250 g ai/ha, scale 0-100, read-out: Plant response rating, Bermudagrass
  pest or weed control at 250 g/ha: 100%
bermudagrass; Cynodon dactylon, pre-emergence, 312 h, 500 g ai/ha, scale 0 to 100 (0 no effect, 100 complete control), visual, 12 to 14 days, read-out: Plant response rating, Bermudagrass
  pest or weed control at 500 g/ha: 100%
soybean; 125 g ai/ha, preemergence
  Plant response rating (0 = no effect, 100 = complete control), Soybean: 15
soybean; Glycine max, pre-emergence, 62 g ai/ha, preemergence, scale 0 to 100, read-out: Plant response rating, Soybean
  plant injury at 62 g/ha: 0%
soybean; Glycine max, pre-emergence, 250 g ai/ha, scale 0-100, read-out: Plant response rating, Soybean
  plant injury at 250 g/ha: 50%
soybean; Glycine max, pre-emergence, 500 g ai/ha, scale 0 to 100 (0 no effect, 100 complete control), visual, 12 to 14 days, read-out: Plant response rating, Soybean
  plant injury at 500 g/ha: 70%
Large crabgrass; 125 g ai/ha, preemergence
  Plant response rating (0 = no effect, 100 = complete control), Crabgrass, Large: 85
Large crabgrass; Digitaria sanguinalis, pre-emergence, 312 h, 62 g ai/ha, preemergence, scale 0 to 100, read-out: Plant response rating, Crabgrass, Large
  pest or weed control at 62 g/ha: 55%
Large crabgrass; Digitaria sanguinalis, pre-emergence, 312 h, 250 g ai/ha, scale 0-100, read-out: Plant response rating, Crabgrass, Large
  pest or weed control at 250 g/ha: 100%
Large crabgrass; Digitaria sanguinalis, pre-emergence, 312 h, 500 g ai/ha, scale 0 to 100 (0 no effect, 100 complete control), visual, 12 to 14 days, read-out: Plant response rating, Crabgrass, Large
  pest or weed control at 500 g/ha: 100%
[1]; 125 g ai/ha, preemergence
  Plant response rating (0 = no effect, 100 = complete control), Sunflower: 0
[1]; Helianthus annuus, pre-emergence, 62 g ai/ha, preemergence, scale 0 to 100, read-out: Plant response rating, Sunflower
  pest or weed control at 62 g/ha: 0%
[1]; Helianthus annuus, pre-emergence, 250 g ai/ha, scale 0-100, read-out: Plant response rating, Sunflower
  pest or weed control at 250 g/ha: 0%
[1]; Helianthus annuus, pre-emergence, 500 g ai/ha, scale 0 to 100 (0 no effect, 100 complete control), visual, 12 to 14 days, read-out: Plant response rating, Sunflower
  pest or weed control at 500 g/ha: 0%
ducksalad; 62 g ai/ha, scale 0 to 100, read-out: Ducksalad plant response rating
  pest or weed control at 62 g/ha: 20%
ducksalad; 125 g ai/ha, scale 0 to 100 (0 no effect, 100 complete control), read-out: Ducksalad plant response rating
  pest or weed control at 125 g/ha: 65%
ducksalad; 250 g ai/ha, scale of 0 to 100, 0 is no effect, 100 is complete control, read-out: Ducksalad plant response rating
  pest or weed control at 250 g/ha: 85%
ducksalad; 500 g ai/ha, visual rating after 12 to 14 days, scale 0 to 100 (0 no effect, 100 complete control), read-out: Plant response rating, Ducksalad
  pest or weed control at 500 g/ha: 95%
rice; 62 g ai/ha, scale 0 to 100, read-out: Rice plant response rating
  plant injury at 62 g/ha: 20%
rice; 125 g ai/ha, scale 0 to 100 (0 no effect, 100 complete control), read-out: Rice plant response rating
  plant injury at 125 g/ha: 45%
rice; 250 g ai/ha, scale of 0 to 100, 0 is no effect, 100 is complete control, read-out: Rice plant response rating
  plant injury at 250 g/ha: 60%
rice; 500 g ai/ha, visual rating after 12 to 14 days, scale 0 to 100 (0 no effect, 100 complete control), read-out: Plant response rating, Rice
  plant injury at 500 g/ha: 70%
barnyardgrass; 62 g ai/ha, scale 0 to 100 (0 no effect, 100 complete control), read-out: Barnyardgrass plant response rating
  pest or weed control at 62 g/ha: 25%
barnyardgrass; 125 g ai/ha, scale 0 to 100 (0 no effect, 100 complete control), read-out: Barnyardgrass plant response rating
  pest or weed control at 125 g/ha: 45%
barnyardgrass; 250 g ai/ha, scale of 0 to 100, 0 is no effect, 100 is complete control, read-out: Barnyardgrass plant response rating
  pest or weed control at 250 g/ha: 65%
barnyardgrass; 500 g ai/ha, visual rating after 12 to 14 days, scale 0 to 100 (0 no effect, 100 complete control), read-out: Plant response rating, Barnyardgrass
  pest or weed control at 500 g/ha: 90%
kochia; 125 g ai/ha, preemergence
  Plant response rating (0 = no effect, 100 = complete control), Kochia: 85
kochia; Bassia scoparia, pre-emergence, 62 g ai/ha, preemergence, scale 0 to 100, read-out: Plant response rating, Kochia
  pest or weed control at 62 g/ha: 80%
kochia; Bassia scoparia, pre-emergence, 250 g ai/ha, scale 0-100, read-out: Plant response rating, Kochia
  pest or weed control at 250 g/ha: 100%
kochia; Bassia scoparia, pre-emergence, 500 g ai/ha, scale 0 to 100 (0 no effect, 100 complete control), visual, 12 to 14 days, read-out: Plant response rating, Kochia
  pest or weed control at 500 g/ha: 100%
lambsquarters; 125 g ai/ha, preemergence
  Plant response rating (0 = no effect, 100 = complete control), Lambsquarters: 100
lambsquarters; Chenopodium album, pre-emergence, 62 g ai/ha, preemergence, scale 0 to 100, read-out: Plant response rating, Lambsquarters
  pest or weed control at 62 g/ha: 85%
lambsquarters; Chenopodium album, pre-emergence, 250 g ai/ha, scale 0-100, read-out: Plant response rating, Lambsquarters
  pest or weed control at 250 g/ha: 100%
lambsquarters; Chenopodium album, pre-emergence, 500 g ai/ha, scale 0 to 100 (0 no effect, 100 complete control), visual, 12 to 14 days, read-out: Plant response rating, Lambsquarters
  pest or weed control at 500 g/ha: 100%
Giant foxtail; 125 g ai/ha, preemergence
  Plant response rating (0 = no effect, 100 = complete control), Foxtail, Giant: 60
Giant foxtail; Setaria faberi, pre-emergence, 312 h, 62 g ai/ha, preemergence, scale 0 to 100, read-out: Plant response rating, Foxtail, Giant
  pest or weed control at 62 g/ha: 5%
Giant foxtail; Setaria faberi, pre-emergence, 312 h, 250 g ai/ha, scale 0-100, read-out: Plant response rating, Foxtail, Giant
  pest or weed control at 250 g/ha: 100%
Giant foxtail; Setaria faberi, pre-emergence, 312 h, 500 g ai/ha, scale 0 to 100 (0 no effect, 100 complete control), visual, 12 to 14 days, read-out: Plant response rating, Foxtail, Giant
  pest or weed control at 500 g/ha: 100%
